Source: patent publication US20220283165A1, “Methods of Enhancing Immunogenicity of Cancers” (The Board of Trustees of the Leland Stanford Junior …, priority 2019, published 2022)

Tests used:
[1] = system: Siglec-7 ligands on primary human T-ALL cells; assay: Siglec-7 ligands on patient T-ALL liquid biopsies treated with MYC inhibitor; assay type: cell-based; details: FACS-sorted primary T-ALL cells, 48 hours; two of three patients had Siglec-7-Fc binding
Experimental: (§1) ST6GALNAC4 or pharmacologic MYC inhibition for 48 hours by incubation with 100 μM 10058-F4 (n(control)=8, n(KO)=4, n(inhibitor)=6, two-tailed Mann-Whitney U test). Data presented as mean ±s.d. Panel C: Representative Western blot for ST6GALNAC4 in PEER cells following MYC inhibition with 100 μM 10058-F4 for 48 hours. Data representative of two independent experiments. Panel D: Workflow to collect primary T-ALL from patients, treat with a MYC inhibitor (10058-F4), and quantify Siglec-7 ligands. Panel E: Siglec-7 ligands on patient T-ALL liquid biopsies treated with the indicated concentration of 10058-F4 for 48 hours. Data represent three donors. Panel F: Correlation of ST6GALNAC4 and MYC mRNA (RNA-seq) gene expression across all hematopoietic tumor samples (n=106) in the CCLE with MYC expression>3. Correlation determined by least squares regression. Panel G: Survival Z-score heatmap for each sialyltransferase across each hematopoietic tumor within the PRECOG database. […] Panel H: Siglec-7 ligand display by KARPAS-422 DLBCL cells following treatment with 10058-F4 for 48 hours (n=3 per group, two-tailed Student's t-test). Data presented as mean±s.d. […] Monocyte prevalence was calculated as a fraction of all lymphocytes. […]
Assessed next was whether T-ALL liquid biopsies display Siglec-7 ligands susceptible to MYC regulation. […]

Myc-Max complex = molecular target: T1, Myc-Max complex (Homo sapiens, UniProt P01106); details: HL60 cells; cited from earlier work
T1 construct: host or cells: HL60 cells (for 10058-F4 only)
T1 sequence (P01106 whole entry, one chain of several): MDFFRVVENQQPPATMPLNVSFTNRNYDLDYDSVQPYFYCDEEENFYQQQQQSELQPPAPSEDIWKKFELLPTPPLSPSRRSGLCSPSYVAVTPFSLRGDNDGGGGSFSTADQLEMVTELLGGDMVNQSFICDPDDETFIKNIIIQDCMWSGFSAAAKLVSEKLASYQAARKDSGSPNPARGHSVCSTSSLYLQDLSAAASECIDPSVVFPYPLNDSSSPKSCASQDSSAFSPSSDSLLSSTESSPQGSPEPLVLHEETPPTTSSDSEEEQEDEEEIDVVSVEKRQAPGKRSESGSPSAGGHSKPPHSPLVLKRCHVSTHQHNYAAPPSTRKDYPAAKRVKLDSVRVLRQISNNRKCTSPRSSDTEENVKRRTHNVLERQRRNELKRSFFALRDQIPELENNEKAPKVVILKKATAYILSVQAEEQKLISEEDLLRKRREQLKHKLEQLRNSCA

ST6GALNAC4 = assay: Western blot for ST6GALNAC4 in PEER cells after MYC inhibition; assay type: cell-based, human; details: 100 μM 10058-F4 for 48 hours
Experimental: as §1, with “mean±s.d. Panel I: Survival stratified by median MYC and ST6GALNAC4 expression in a cohort of DLBCL patients (GSE4475). HR, hazard ratio from Cox Proportional Hazards model.” for “mean±s.d.”

[2] = system: Siglec-7 ligands on KARPAS-422 DLBCL cells; assay: Siglec-7 ligand display by KARPAS-422 DLBCL cells after MYC inhibition; assay type: cell-based, human; details: 48 hours
Experimental: as §1, with “mean±s.d. Panel I: Survival stratified by median MYC and ST6GALNAC4 expression in a cohort of DLBCL patients (GSE4475). HR, hazard ratio from Cox Proportional Hazards model.” for “mean±s.d.”

[3] = system: Siglec-7 ligands on PEER cells; assay: Siglec-7 ligand display (Siglec-7-Fc staining, flow cytometry) on PEER cells after MYC or CDK7/9 inhibition; assay type: cell-based, human; details: 48 hours, 10058-F4 at 100 μM
Experimental: as §1, with “mean±s.d. Panel I: Survival stratified by median MYC and ST6GALNAC4 expression in a cohort of DLBCL patients (GSE4475). HR, hazard ratio from Cox Proportional Hazards model.” for “mean±s.d.”

[4] = system: MYCN-amplified neuroblastoma; details: xenograft model; cited from earlier work
Myc-AURKA complex = Myc-AURKA complex (Homo sapiens, UniProt O14965); details: MYCN-amplified neuroblastomas; cited from earlier work
Sequence of Myc-AURKA complex (O14965 whole entry, one chain of several): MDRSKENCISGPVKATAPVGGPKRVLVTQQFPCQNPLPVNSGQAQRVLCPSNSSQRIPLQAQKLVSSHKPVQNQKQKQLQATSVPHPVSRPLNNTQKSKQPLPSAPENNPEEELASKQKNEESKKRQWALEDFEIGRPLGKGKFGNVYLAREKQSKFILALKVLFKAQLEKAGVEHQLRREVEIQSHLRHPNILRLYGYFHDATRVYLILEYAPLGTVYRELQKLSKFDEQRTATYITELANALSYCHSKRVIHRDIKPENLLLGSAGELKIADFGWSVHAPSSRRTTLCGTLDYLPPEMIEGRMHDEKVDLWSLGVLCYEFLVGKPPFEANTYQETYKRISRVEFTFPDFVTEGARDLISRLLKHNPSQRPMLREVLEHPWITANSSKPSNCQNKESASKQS

c-Myc = details: P53-mutant human hepatocellular carcinoma cells; cited from earlier work
[5] = system: hematopoietic cancers and pancreatic ductal adenocarcinoma (PDAC) exhibiting C-MYC overexpression; details: in vitro and in vivo; cited from earlier work
[6] = system: MYC-overexpressing T-cell acute lymphoblastic leukemia, mixed-lineage leukemia, neuroblastomas, small cell lung cancers; details: cited from earlier work

**Q.** Which Siglec-7 ligand display [1] does the source give for `CCc1ccc(/C=C2/SC(=S)NC2=O)cc1` [10058-F4] here?
**A.** Its Siglec-7 ligand display is “reduced Siglec-7 ligand display”.

**Q.** And the “disruption of the Myc-Max complex” value (Myc-Max complex)?
**A.** The value was “capable of disrupting the Myc-Max complex”.

**Q.** And the ST6GALNAC4 protein expression (ST6GALNAC4)?
**A.** The ST6GALNAC4 protein expression was “diminished ST6GALNAC4 protein expression”.

**Q.** What about the “reduction in Siglec-7 ligand abundance” value [2] of the same compound?
**A.** Its value is 70%.

**Q.** And the “Siglec-7-Fc binding (Siglec-7 ligands)” value [3]?
**A.** Its value is “reduced Siglec-7-Fc binding”.

**Q.** For `CC(=O)c1cc([N+](=O)[O-])c(Sc2ccc(F)cc2F)s1` [P22077], which “growth of MYCN-amplified neuroblastoma” value [4] is on record?
**A.** Its value is “markedly suppressed growth”.

**Q.** For `O=C(O)c1ccc(Nc2ncc3c(n2)-c2ccc(Cl)cc2C(c2c(F)cccc2F)=NC3)cc1` [MLN8054], which “N-Myc degradation and tumor regression” value (Myc-AURKA complex) is on record?
**A.** The value was “N-Myc degradation and tumor regression”.

**Q.** Which results are given for `COc1cc(Nc2ncc3c(n2)-c2ccc(Cl)cc2C(c2c(F)cccc2OC)=NC3)ccc1C(=O)O` [MLN8237]?
**A.** c-Myc degradation (c-Myc): induced c-Myc degradation; N-Myc degradation and tumor regression (Myc-AURKA complex): N-Myc degradation and tumor regression

**Q.** For `Cc1sc2c(c1C)C(c1ccc(Cl)cc1)=N[C@@H](CC(=O)OC(C)(C)C)c1nnc(C)n1-2` [JQ1], which anti-cancer effects [5] is on record?
**A.** The anti-cancer effects was “potent anti-cancer effects both in vitro and in vivo”.

**Q.** What does the source list for `CN(C)C/C=C/C(=O)Nc1ccc(C(=O)Nc2cccc(Nc3ncc(Cl)c(-c4c[nH]c5ccccc45)n3)c2)cc1` [THZ1]?
**A.** anti-tumor effects [6]: potent anti-tumor effects; ST6GALNAC4 protein expression (ST6GALNAC4): diminished ST6GALNAC4 protein expression; Siglec-7-Fc binding (Siglec-7 ligands) [3]: reduced Siglec-7-Fc binding
